# ± gives the standard deviation of the averaged measurements.
# How the values were obtained:
# Settings in all cases: treatment time: 3 days
# UT-SCC-40 [1] = assay: maximal % inhibition of viability relative to DMSO; higher = stronger effect
# Description: (§1)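 HNSCC cell lines (500 cells/well, 384-well) were cultured on plastic, on top of (2D) or embedded (3D) in Matrigel or human leiomyoma matrix Myogel (500 ug/mL; Myogel 3D mixed with rat collagen I). Cells were treated for 3 days with 5 ten-fold concentrations of each drug, and viability was read by CellTiter-Glo. Viability was normalised to DMSO and benzethonium chloride controls and fitted with the FIMM DSRT pipeline to give IC50 (nM), maximal % inhibition and DSS. Suffixes _1/_2/_3 are replicates. Only inhibition-mode (IC50) fits are kept.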
# UT-SCC-24B = assay: as above
# Description: as §1
# UT-SCC-42B [2] = assay: as above
# Description: as §1
# UT-SCC-73 [3] = assay: as above
# Description: as §1
# UT-SCC-8 [4] = assay: as above
# Description: as §1
# UT-SCC-28 [5] = assay: as above
# Description: as §1
# UT-SCC-81 [6] = assay: as above
# Description: as §1
# UT-SCC-44 [7] = assay: as above
# Description: as §1
# UT-SCC-14 = assay: as above
# Description: as §1
# UT-SCC-106A [8] = assay: as above
# Description: as §1
# UT-SCC-42A [9] = assay: as above
# Description: as §1
# UT-SCC-40 [10] = assay: drug sensitivity score (DSS); higher = more sensitive; extreme values may be limits of the assay
# Method in brief: (§2)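 Three growth formats were used for HPV-negative HNSCC cell lines in 384-well plates at 500 cells/well: bare plastic, wells coated with Matrigel or Myogel (500 µg/mL), and embedding in Matrigel or Myogel plus rat collagen I. Compounds were added at five 10-fold concentrations, and after 3 days CellTiter-Glo 2.0 luminescence was recorded and normalised to vehicle (0.1% DMSO) and cell-killing control wells. IC50, maximal inhibition and drug sensitivity score came from percent-inhibition dose–response fitting in the FIMM pipeline.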
# UT-SCC-42B [11] = assay: as above
# Method in brief: as §2
# UT-SCC-73 [12] = assay: as above
# Method in brief: as §2
# UT-SCC-8 [13] = assay: as above
# Method in brief: as §2
# UT-SCC-28 [14] = assay: as above
# Method in brief: as §2
# UT-SCC-81 [15] = assay: as above
# Method in brief: as §2
# UT-SCC-44 [16] = assay: as above
# Method in brief: as §2
# UT-SCC-106A [17] = assay: as above
# Method in brief: as §2
# UT-SCC-42A [18] = assay: as above
# Method in brief: as §2
# [19] = culture condition: embedded in Matrigel
# [20] = culture condition: embedded in Myogel + collagen I
# [21] = culture condition: on top of Matrigel
# [22] = culture condition: on top of Myogel
# [23] = culture condition: plastic 2D (no matrix)
smiles,measurement,setting,value
Cn1cnc2c(F)c(Nc3ccc(Br)cc3Cl)c(C(=O)NOCCO)cc21 [Selumetinib],maximal % inhibition of viability,UT-SCC-40 [1]; [19],79.8 ± 1.3%
same,maximal % inhibition of viability,UT-SCC-40 [1]; [20],62.5 ± 8%
same,maximal % inhibition of viability,UT-SCC-40 [1]; [21],75.8 ± 3.5%
same,maximal % inhibition of viability,UT-SCC-40 [1]; [22],52.1 ± 3.1%
same,maximal % inhibition of viability,UT-SCC-40 [1]; [23],56.2 ± 5.7%
same,maximal % inhibition of viability,UT-SCC-24B; [19],87.67 ± 0.5%
same,maximal % inhibition of viability,UT-SCC-24B; [20],84 ± 4.5%
same,maximal % inhibition of viability,UT-SCC-24B; [21],86.67 ± 0.21%
same,maximal % inhibition of viability,UT-SCC-24B; [22],82.5 ± 3.8%
same,maximal % inhibition of viability,UT-SCC-24B; [23],89.73 ± 0.6%
same,maximal % inhibition of viability,UT-SCC-42B [2]; [19],67.7 ± 7.4%
same,maximal % inhibition of viability,UT-SCC-42B [2]; [21],46.9 ± 14%
same,maximal % inhibition of viability,UT-SCC-42B [2]; [22],17.3 ± 1.7%
same,maximal % inhibition of viability,UT-SCC-42B [2]; [23],25.6 ± 8.1%
same,maximal % inhibition of viability,UT-SCC-73 [3]; [19],81.9 ± 1.5%
same,maximal % inhibition of viability,UT-SCC-73 [3]; [20],54.4 ± 8.1%
same,maximal % inhibition of viability,UT-SCC-73 [3]; [21],80 ± 1.5%
same,maximal % inhibition of viability,UT-SCC-73 [3]; [22],65.4 ± 1.1%
same,maximal % inhibition of viability,UT-SCC-73 [3]; [23],75.3 ± 1.2%
same,maximal % inhibition of viability,UT-SCC-8 [4]; [19],49.4 ± 8.9%
same,maximal % inhibition of viability,UT-SCC-8 [4]; [20],33.9 ± 6.9%
same,maximal % inhibition of viability,UT-SCC-8 [4]; [21],47.1 ± 5.1%
same,maximal % inhibition of viability,UT-SCC-8 [4]; [22],50.4 ± 5.8%
same,maximal % inhibition of viability,UT-SCC-8 [4]; [23],53.4 ± 9.7%
same,maximal % inhibition of viability,UT-SCC-28 [5]; [19],38.9 ± 18%
same,maximal % inhibition of viability,UT-SCC-28 [5]; [20],39.8 ± 4.3%
same,maximal % inhibition of viability,UT-SCC-28 [5]; [21],35.8 ± 9.2%
same,maximal % inhibition of viability,UT-SCC-28 [5]; [23],29.4 ± 9.5%
same,maximal % inhibition of viability,UT-SCC-81 [6]; [19],87.8 ± 2%
same,maximal % inhibition of viability,UT-SCC-81 [6]; [20],39.9 ± 7.8%
same,maximal % inhibition of viability,UT-SCC-81 [6]; [21],82.63 ± 0.81%
same,maximal % inhibition of viability,UT-SCC-81 [6]; [22],54.2 ± 2.4%
same,maximal % inhibition of viability,UT-SCC-81 [6]; [23],68.7 ± 4.2%
same,maximal % inhibition of viability,UT-SCC-44 [7]; [19],66.5 ± 25%
same,maximal % inhibition of viability,UT-SCC-44 [7]; [20],42.2 ± 0.7%
same,maximal % inhibition of viability,UT-SCC-44 [7]; [21],51.6 ± 3.1%
same,maximal % inhibition of viability,UT-SCC-44 [7]; [22],41.2 ± 5.3%
same,maximal % inhibition of viability,UT-SCC-44 [7]; [23],39.8 ± 1.5%
same,maximal % inhibition of viability,UT-SCC-14; [19],31 ± 16%
same,maximal % inhibition of viability,UT-SCC-14; [20],26.1 ± 7.3%
same,maximal % inhibition of viability,UT-SCC-14; [21],38.6 ± 9%
same,maximal % inhibition of viability,UT-SCC-14; [22],32.2 ± 8.8%
same,maximal % inhibition of viability,UT-SCC-14; [23],35.5 ± 14%
same,maximal % inhibition of viability,UT-SCC-106A [8]; [19],53.2 ± 6.3%
same,maximal % inhibition of viability,UT-SCC-106A [8]; [20],18.7 ± 4.1%
same,maximal % inhibition of viability,UT-SCC-106A [8]; [21],58.9 ± 5.3%
same,maximal % inhibition of viability,UT-SCC-106A [8]; [22],15.5 ± 4.6%
same,maximal % inhibition of viability,UT-SCC-106A [8]; [23],58.1 ± 4.1%
same,maximal % inhibition of viability,UT-SCC-42A [9]; [19],54.2 ± 7.8%
same,maximal % inhibition of viability,UT-SCC-42A [9]; [20],24.9 ± 13%
same,maximal % inhibition of viability,UT-SCC-42A [9]; [21],55.1 ± 8.1%
same,maximal % inhibition of viability,UT-SCC-42A [9]; [22],40.7 ± 4.6%
same,maximal % inhibition of viability,UT-SCC-42A [9]; [23],50.4 ± 6.9%
same,drug sensitivity score,UT-SCC-40 [10]; [19],22.6 ± 0.71 DSS
same,drug sensitivity score,UT-SCC-40 [10]; [20],17.6 ± 0.8 DSS
same,drug sensitivity score,UT-SCC-40 [10]; [21],20.7 ± 0.92 DSS
same,drug sensitivity score,UT-SCC-40 [10]; [22],11.2 ± 2.4 DSS
same,drug sensitivity score,UT-SCC-40 [10]; [23],12.6 ± 2.5 DSS
same,drug sensitivity score,UT-SCC-42B [11]; [19],16.5 ± 4.6 DSS
same,drug sensitivity score,UT-SCC-42B [11]; [21],8.67 ± 2.3 DSS
same,drug sensitivity score,UT-SCC-42B [11]; [22],2.13 ± 0.76 DSS
same,drug sensitivity score,UT-SCC-42B [11]; [23],2.33 ± 2 DSS
same,drug sensitivity score,UT-SCC-73 [12]; [19],21 ± 2.8 DSS
same,drug sensitivity score,UT-SCC-73 [12]; [20],13.5 ± 3.5 DSS
same,drug sensitivity score,UT-SCC-73 [12]; [21],20.2 ± 2.6 DSS
same,drug sensitivity score,UT-SCC-73 [12]; [22],15.2 ± 1.1 DSS
same,drug sensitivity score,UT-SCC-73 [12]; [23],17.9 ± 1.4 DSS
same,drug sensitivity score,UT-SCC-8 [13]; [19],10.1 ± 1.3 DSS
same,drug sensitivity score,UT-SCC-8 [13]; [20],1.37 ± 2.4 DSS
same,drug sensitivity score,UT-SCC-8 [13]; [21],9.63 ± 0.58 DSS
same,drug sensitivity score,UT-SCC-8 [13]; [22],10.3 ± 1.5 DSS
same,drug sensitivity score,UT-SCC-8 [13]; [23],5.63 ± 2.3 DSS
same,drug sensitivity score,UT-SCC-28 [14]; [19],8.07 ± 4.3 DSS
same,drug sensitivity score,UT-SCC-28 [14]; [20],4.4 ± 3.9 DSS
same,drug sensitivity score,UT-SCC-28 [14]; [21],6.2 ± 5.5 DSS
same,drug sensitivity score,UT-SCC-28 [14]; [23],3.8 ± 3.9 DSS
same,drug sensitivity score,UT-SCC-81 [15]; [19],24.4 ± 0.94 DSS
same,drug sensitivity score,UT-SCC-81 [15]; [20],7.33 ± 6.3 DSS
same,drug sensitivity score,UT-SCC-81 [15]; [21],19.9 ± 0.72 DSS
same,drug sensitivity score,UT-SCC-81 [15]; [22],9.93 ± 3.6 DSS
same,drug sensitivity score,UT-SCC-81 [15]; [23],7.87 ± 8 DSS
same,drug sensitivity score,UT-SCC-44 [16]; [19],15.8 ± 5.2 DSS
same,drug sensitivity score,UT-SCC-44 [16]; [20],4.83 ± 4.2 DSS
same,drug sensitivity score,UT-SCC-44 [16]; [21],12.3 ± 0.94 DSS
same,drug sensitivity score,UT-SCC-44 [16]; [22],8.17 ± 1.2 DSS
same,drug sensitivity score,UT-SCC-44 [16]; [23],7.8 ± 3.5 DSS
same,drug sensitivity score,UT-SCC-106A [17]; [19],14.6 ± 2 DSS
same,drug sensitivity score,UT-SCC-106A [17]; [20],0.867 ± 1.5 DSS
same,drug sensitivity score,UT-SCC-106A [17]; [21],16.1 ± 0.75 DSS
same,drug sensitivity score,UT-SCC-106A [17]; [22],1.03 ± 1.7 DSS
same,drug sensitivity score,UT-SCC-106A [17]; [23],15.7 ± 2.3 DSS
same,drug sensitivity score,UT-SCC-42A [18]; [19],10.9 ± 4.8 DSS
same,drug sensitivity score,UT-SCC-42A [18]; [20],4.23 ± 4.5 DSS
same,drug sensitivity score,UT-SCC-42A [18]; [21],14.4 ± 5 DSS
same,drug sensitivity score,UT-SCC-42A [18]; [22],9.23 ± 2 DSS
same,drug sensitivity score,UT-SCC-42A [18]; [23],10.8 ± 3 DSS
